Data published in patent US7034020B2, “Derivatives of butyric acid and uses thereof” (The University of Arkansas for Medical Science, priority 1999, dated 2006).

Legend:
[1] = tested on: lymph node CD4+ T cells; experiment: Ovalbumin-stimulated proliferation of lymph node CD4+ T cells from treated mice; format: in vivo, C57BL/10 mice; conditions: MEB 0.15 mmol ip on day 2 or day 3; cells restimulated with ovalbumin in vitro
Description: C57BL/10 mice are injected ip with ovalbumin/CFA on day 0, followed by a single ip injection of saline or MEB (0.15 mmol) on Days 2 or 3. The mice are reimmunized with ovalbumin sc on Day 10. Isotype-specific anti-ovalbumin antibody generated during the primary immune response (FIG. 4A), and the secondary immune response (FIG. 4B) are measured in the serum at day 10 and day 16, respectively. (FIG. 4C). […] This experiment was repeated, and the proliferation data represents the means of the two experiments.
If the butyrate derivatives suppressed antibody production to a thymus-dependent antigen by inactivating the antigen-specific CD4^+ T cells required for B cell help, then the butyrate derivatives need only be present during an early stage during which the CD4^+ T cells would otherwise be activated by antigen. […] On day 10 the mice receive 100 μg ovalbumin in conjunction with incomplete Freund's adjuvant sc at the base of the tail. After an additional 7 days, cells from the periaortic and mesenteric lymph nodes were enriched for CD4^+ T cells by negative selection (Griffin et al., 1998). […] Proliferation is measured on day 4 by assessing incorporation of [^3H]-TdR after a 12 hour pulse.

[2] = tested on: spleen cells from DBA/2 mice; experiment: Mixed lymphocyte response (MLR), alloantigen-specific T cell unresponsiveness; format: cell-based
Description: (FIG. 6A) Spleen cells from DBA/2 mice (H-2^d) were stimulated in a primary mixed lymphocyte response (MLR) with irradiated spleen cells or from C57BL/10 mice (H-2^b) in the presence (∘) or absence (●) of MEB (1 mM). As a negative control some wells are stimulated with spleen cells from DBA/2 mice (▾). Proliferation is measured on day 5. (FIG. 6B) After 3 days, some wells in the primary MLR cultures are washed, and rested for a further 2 days. The spleen cells that were stimulated in the primary MLR with spleen cells from C57BL/10 mice in the presence (∘) or absence (●) of MEB are then isolated and reincubated with either the original alloantigen (spleen cells from C57BL/10 mice), with a third-party alloantigen [spleen cells from C3H/HeJ mice (H-2k)], or with IL-2 (Con A CM).
The ability of MEB to induce alloantigen-specific T cell unresponsiveness is shown by incubating spleen cells from DBA/2 mice (H-2^d) (2.5×10^5 in 200 μl /wells) with stimulator cells [2.5×10^5 irradiated (2000R) spleen cells from C57BL/10 mice (H-2^b)]. MEB (1 mM) is added to some wells of the mixed lymphocyte reaction (MLR) 24 hours after the initiation of culture. After an additional 3 days, the MLR cultures are washed, and rested for a further 2 days. The T cells from the MLR are then isolated and reincubated at 2.5×10^5/well with either the initial alloantigen (spleen cells from C57BL/10 mice), or with a third-party alloantigen [spleen cells from C3H/HeJ mice (H-2^k)]. Proliferation in both the primary and secondary MLR is measured on day 5 by assessing incorporation of [^3H]-TdR after a 12 hour pulse.

[3] = tested on: KLH-specific Th1 cells (clone D3); experiment: IL-2-induced proliferation of Th1 cells in the presence of butyrate derivatives; format: cell-based, C57BL/10 mice
Description: KLH-specific Th1 cells (clone D3) are stimulated with IL-2 (10% Con A CM) in the presence of different concentrations of n-butyrate or butyrate derivatives. In FIG. 2A Th1 cell proliferation is measured after 2 days. In FIG. 2B, the inhibitors are washed out after 24 hours, and the Th1 cells reincubated with fresh IL-2-containing medium. Proliferation of the Th1 cells restimulated with IL-2 in the absence of the inhibitors is measured after an additional 2 days. This experiment was repeated three times, and the proliferation data represents the means of the […] experiments.
The KLH-specific were developed in C57BL/10 mice, and characterized as Th1 clones based on their ability to secrete IL-2, but not IL-4. The Th1 clones were passed every 7–14 days using KLH, irradiated syngeneic spleen cells as antigen-presenting cells (APC), and IL-2-containing Con A CM using a previously described protocol (Gilbert et al., 1990).
To test the ability of the butyrate derivatives to suppress T cell activity […], Th1 cells [(5×10^4 cells/well in 96 well plates (Costar)] are stimulated with 10% IL-2-containing Con A CM in the presence of various concentrations of different butyrate derivatives. In some cultures, Th1 cell proliferation is measured after two days. In other cultures, the Th1 cells are washed after 24 hours, and fresh IL-2-containing medium is added. Proliferation is measured in the washed, IL-2-restimulated cultures after an additional 2 days.

CCCC(=O)OCCN1CCOCC1.Cl [MEB, 2-(4-Morpholinyl)ethyl butyrate hydrochloride]
Antigen-specific proliferation of CD4+ T cells from antigen-primed mice [1]: significant loss of antigen-specific proliferation
Proliferation in secondary MLR, third-party alloantigen ([2]; MEB 1 mM in primary MLR, restimulated with C3H/HeJ spleen cells): able to proliferate
Proliferation in secondary MLR, initial alloantigen ([2]; MEB 1 mM in primary MLR, restimulated with C57BL/10 spleen cells without MEB): lose their ability to proliferate
Proliferation in secondary culture, exogenous IL-2 ([2]; MEB 1 mM in primary MLR, restimulated with IL-2): able to proliferate
Spleen cell proliferation in primary one-way MLR ([2]; MEB 1 mM, day 5): blocked spleen cell proliferation
Suppression of IL-2-induced proliferation of Th1 cells ([3]; 10% Con A CM, various concentrations, proliferation after 2 days): comparable to n-butyrate
Proliferation to IL-2 after compounds are washed out ([3]; washed after 24 hours, fresh IL-2 medium, additional 2 days): regained their ability to proliferate to IL-2
